How the values were obtained:
NCI-H460 = test: Cytotoxicity (cell proliferation) assay in NCI-H460; type: cell-based, human
Experimental: Cytotoxicity Assay. Cytotoxicity studies were carried out according to a standard protocol (Guddneppanavar et al. 2006) using the Celltiter 96 Aqueous Non-Radioactive Cell Proliferation Assay kit (Promega, Madison, Wis.). Stock solutions of 11, 14a, and 14b were prepared in phosphate-buffered saline (PBS) and serially diluted with media prior to incubation with cancer cells. IC50 values were calculated from non-linear curve fits using a sigmoidal dose-response equation in GraphPad Prism (GraphPad Software, La Jolla, Calif.). […]
Cell Proliferation Assay. Cell viability was assessed using the CellTiter 96 Aqueous Non-Radioactive Cell Proliferation Assay (Promega, Madison. Wis., USA) as described previously. […] The absorbance of tetrazolium dye was measured at 490) nm using a plate reader. The fraction of viable cells was calculated as a percentage of untreated control and is reported as the mean±standard deviation for 3 incubations of each compound. IC50 values were calculated from non-linear curve fits using a sigmoidal dose-response equation in GraphPad Prism (GraphPad Software, La Jolla, Calif.) and are averages of two individual experiments performed in triplicate. […]

OVCAR-3 (ovarian) = test: Colorimetric cell proliferation assay in OVCAR-3; type: cell-based; details: 72-h incubations performed in triplicate
[1] = tested on: MDA-MB-231 (triple-negative breast); test: Colorimetric cell proliferation assay in MDA-MB-231; type: cell-based; details: 72-h incubations performed in triplicate
MCF-7 (ER + breast) = test: Colorimetric cell proliferation assay in MCF-7; type: cell-based; details: 72-h incubations performed in triplicate
PANC-1 (pancreatic) = test: Colorimetric cell proliferation assay in PANC-1; type: cell-based; details: 72-h incubations performed in triplicate

N.N.[Cl][Pt][Cl] [cispiatin, cis-diamminedichloroplatinum]
IC50 (NCI-H460; 72-h incubations performed in triplicate (Table II), read-out: IC50, NCI-H460 (NSCLC)): 1.2 ± 0.2 µM | Fold less potent than the compounds of the invention in H460 cells (NCI-H460; compared with 14a and 14b): at least 20 fold | IC50 (OVCAR-3 (ovarian)): 3.3 ± 0.4 µM | IC50 [1]: 60 ± 7 µM | IC50 (MCF-7 (ER + breast)): 12 ± 2 µM | IC50 (PANC-1 (pancreatic)): 6.6 ± 0.7 µM

— patent publication US9090640B2, “Targeted delivery and prodrug designs for platinum-acridine anti-cancer compounds and methods thereof” (priority 2011, dated 2015)
